We go through two compounds from PMC8620715, “Biological Activity of Triazolopyrimidine Copper(II) Complexes Modulated by an Auxiliary N-N-Chelating Heterocycle Ligands” (Molecules, 2021).

Each structure is given as a SMILES string. Where two headings read alike, the source gives them in different places.

One series concerns S. aureus 25923. Kind of series: Biofilm formation on polystyrene (crystal violet), MBEC. It is filed as cell-based, Staphylococcus aureus. As to conditions: S. aureus 25923, biofilm. The protocol: (§1) The antibacterial assays were carried out using two Gram-negative (Escherichia coli ATCC 25922, Pseudomonas aeruginosa ATCC 27853) and two Gram-positive (Staphylococcus aureus ATCC 25923, MRSA (meticillin-Resistant S. aureus) 388 (ATCC, American Type Culture Collection) bacteria.
(§2) The method for assessment of biofilm formation on polystyrene microtiter plates was based on previously published protocols. The absorbance at 490 nm was measured with an Apollo LB 911ELISA (Berthold Technologies GmbH & Co. KG, Waltham, MA, USA) reader. The minimal biofilm-eradication concentration (MBEC) was defined as the lowest concentration of antibiotics required to eradicate the biofilm. All experiments were performed in triplicate.

In the next series the test system is MRSA 388. The series is described as above. It is filed as cell-based, Staphylococcus aureus. As to conditions: MRSA 388, biofilm. The protocol: as §1, §2
A further series concerns λ-DNA. Kind of series: UV-visible absorption titration with λ-DNA. Type of series: binding, bacteriophage lambda. The following applies: 5 µM complex, increasing DNA. How it is done:
To determine if the compounds can interact with DNA, the 48,500 base-pairs genomic DNA from bacteriophage lambda (λ-DNA, Promega, MA, USA) was used. A stock solution of 10 µM λ-DNA (base-pair concentration) was prepared in 10 mMTris/HCl buffer containing 1 mM NaCl, pH 8.
To determine the DNA intercalating ability of complexes (1) and (2), we used the 48,500 base-pairs genomic DNA from the bacteriophage lambda (λ-DNA, Promega, Madison, USA). A 10 µM λ-DNA (base-pair concentration) stock solution was prepared in 10 mM Tris/HCl buffer, pH 8, containing 1 mM NaCl. The UV-visible absorption titration experiments were done using a constant complex concentration (5 µM). […] After DNA addition, the solutions were left to equilibrate for 5 min at room temperature before recording the spectra with a Jasco V-630 spectrophotometer. Stock solutions of compounds (1) and (2) were prepared in DMSO (1 mM) and diluted to 5 µM in 10 mM Tris/HCl containing 1 mM NaCl, pH 8.
The UV-Vis absorption titration experiments were done, keeping the complex concentration constant ([…]) and increasing the concentration of λ-DNA in Tris-HCl/NaCl buffer solution at room temperature until a saturation state was achieved. After DNA addition, the solutions were allowed to equilibrate for 5 min at room temperature. The UV-Vis absorption spectra were recorded with a Jasco V-630 spectrophotometer, using a 10 mm quartz cell. […]

In a further series the test system is λ-DNA/EB adduct. Kind of series: Quenching of fluorescence of λ-DNA/ethidium bromide adduct. It is filed as binding, bacteriophage lambda. As to conditions: λ-DNA pre-treated with EB, pH 8. How it is done:
The binding of complexes (1) and (2) to DNA was assayed by monitoring the quenching of fluorescence emitted by λ-DNA/ethidium bromide (EB) adduct (λexcit = 510 nm, maximum emission at λem = 601 nm) in the presence of different concentrations of the tested compounds [68, 69]. The fluorescence spectra were recorded in the range of 550–750 nm using a Thermo Fischer Scientific Varioskan Flash spectral scanning multimode reader (Vantaa, Finland). The spectra were recorded in suitable plates using 5 nm excitation and emission slits for all measurements.
The binding of compounds to λ-DNA was assayed by monitoring the quenching of fluorescence emitted by λ-DNA/ethidium bromide (EB) adduct (λexcit = 510, maximum emission at λem = 601). The λ-DNA solution was added to the EB solution, prepared in the same buffer, then increasing concentrations of compounds were added to EB-DNA [52, 70]. The fluorescence spectra were recorded in the range of 550–750 nm using a Thermo Fischer Scientific Varioskan Flash spectral scanning multimode reader (Vantaa, Finland). The spectra were recorded in suitable plates using 5 nm excitation and emission slits for all measurements.

A further series has as its system BJ cells. Kind of series: Lactate dehydrogenase (LDH) release assay, BJ cells. Type of series: cell-based, human. The protocol:
Membrane integrity after peptide treatment was assessed based on LDH release using a CytoTox 96 Non-Radioactive Cytotoxicity Assay (Promega), as previously described. […] Maximal LDH release was obtained by complete cell lysis induced by using 1% of Triton X-100. The absorption resulting from LDH activity was measured in a microplate reader Mithras 940 (Berthold) at 490 nm, and the % LDH was calculated as: [(corrected absorbance of the LDH released in treated cells)/(corrected absorbance of the total LDH released)] * 100%.

A further series relates to E. coli 25922. Kind of series: Biofilm formation on polystyrene (crystal violet), MBEC. Type of series: cell-based, Escherichia coli. As to conditions: E. coli 25922, biofilm. How it is done:
as §1, §2

Series [1] deals with BJ normal cell line (human fibroblast cells). Kind of series: MTT cell viability assay, BJ normal cells. Type of series: cell-based. As to conditions: for IC50 / reduction of BJ cell viability at the highest concentration: BJ. The protocol:
(§3) Human fibroblast cells (BJ—ATCC CRL-2522, USA) were grown in minimal essential medium (MEM) supplemented with 2 mM L-Glutamine, 10% fetal calf serum (FCS), 100 units/mL of penicillin, and 100 µg/mL of streptomycin at 37 °C in a humidified incubator under an atmosphere containing 5% CO2. Mouse melanoma cells (B16—ATCC CRL—6475, USA) were grown in DMEM (Dulbecco’s Modified Eagle Medium) supplemented with similar reagents as MEM. All cell cultivation media and reagents were purchased from Biochrom AG (Berlin, Germany) and Sigma-Aldrich (Darmstadt, Germany).
(§4) Cell viability was evaluated using 3-(4,5-dimethylthiazol-2-yl)-2,5-diphenyltetrazolium bromide (MTT) assay as described previously. First, the cells were seeded in 96-well plates (20000 cells/well) and cultured for 24 h in medium. […] The negative control was represented by cells cultivated in a medium without the investigated compounds. Following incubation, the medium was changed, and the MTT solution was added to each well to a final concentration of 1 mg/mL and incubated for an additional 4 h, at 37 °C. Finally, the medium was collected, and DMSO was used to dissolve the insoluble formazan product. The absorbance of the samples was recorded at 570 nm using a plate reader Mithras 940 (Berthold). The data were corrected for the background, and the percentage of viable cells was obtained using the equation:Cell viability = [(A570 of treated cells)/(A570 of untreated cells)] × 100%(1)
(§5) The half-maximal inhibitory concentration (IC50) was determined by fitting the data with a sigmoidal logistical equation using the software Origin 8.1 (Microcal Inc., Los Angeles, CA, USA).
On the technique in general: Tetrazolium assays rely on reduction of a dye to a coloured formazan, in cell work by metabolically active cells.

The subject of a further series is P. aeruginosa 27853. Kind of series: Biofilm formation on polystyrene (crystal violet), MBEC. It is filed as cell-based, Pseudomonas aeruginosa. As to conditions: P. aeruginosa 27853, biofilm. How it is done:
as §1, §2

In series [2] the test system is B16 murine melanoma cell line. Kind of series: MTT cell viability assay, B16 melanoma cells. Type of series: cell-based, mouse. As to conditions: for TI (therapeutic index): BJ vs B16, where no toxicity at highest concentration, a value two times higher was used. The protocol: as §3, §4, §5

As usually defined, the IC50 is the concentration that gives 50% inhibition.

With `Cc1cc(C)n2ncnc2n1.Cc1cc(C)n2ncnc2n1.Cc1cc(C)n2ncnc2n1.O.[Cu+2].[O-][Cl+3]([O-])([O-])[O-].[O-][Cl+3]([O-])([O-])[O-].c1ccc(-c2ccccn2)nc1` [Complex (1), [Cu(bpy)(dmtp)2(OH2)](ClO4)2·dmtp], the MBEC with S. aureus 25923 amounted to 0.18 mM; with MRSA 388, 0.35 mM; in the series on E. coli 25922 it was 0.71 mM; with P. aeruginosa 27853 it was 0.71 mM. In the series on λ-DNA, the “change of absorption spectrum on binding to λ-DNA” value was “decrease in the absorption intensity”. In addition, in the series with λ-DNA/EB adduct, the “fluorescence of λ-DNA/EB adduct on adding complex” value is “fluorescence intensity decreased”. The “membrane integrity (LDH release)” value in the series with BJ cells (24 h and 48 h) is “did not affect the membrane integrity”. In addition, the “effect on viability of BJ cells” value in series [1] (range of tested concentrations, 24 h and 48 h) is given as “not affected”. The “TI (therapeutic index)” value in series [2] (24 h) stood at 8.68; in [2] (48 h), 12.82. Besides, the “effect on viability of B16 cells” value in series [2] (24 h and 48 h) is “reduced the viability of B16 cells”. The half-maximal inhibitory concentration (IC50) in series [2] (B16, 24 h) turned out to be 5.76 µg/mL; in [2] (B16, 24 h, read-out: IC50), 6.5 µM; in series [2] (B16, 48 h), 3.90 µg/mL; in series [2] (B16, 48 h, read-out: IC50), 4.42 µM.

With `Cc1cc(C)n2ncnc2n1.Cc1cc(C)n2ncnc2n1.Cc1cc(C)n2ncnc2n1.O.[Cu+2].[O-][Cl+3]([O-])([O-])[O-].[O-][Cl+3]([O-])([O-])[O-].c1cnc2c(c1)ccc1cccnc12` [Complex (2), [Cu(phen)(dmtp)2(OH2)](ClO4)2·dmtp], the MBEC came out at 0.04 mM with S. aureus 25923, 0.04 mM in the series on MRSA 388, 0.17 mM in the series with E. coli 25922 and 0.69 mM in the series with P. aeruginosa 27853. For the same compound, in the series on λ-DNA, the “change of absorption spectrum on binding to λ-DNA” value is on record as “decrease in the absorption intensity”. Besides, the “fluorescence of λ-DNA/EB adduct on adding complex” value in the series on λ-DNA/EB adduct is “fluorescence intensity decreased”. For the same compound, the “membrane integrity (LDH release)” value in the series with BJ cells (24 h) is “not affected”. Further, the LDH release result in the series on BJ cells (48 h) is “around 20%”. For the same compound, the 50% inhibitory concentration (IC50) in series [1] (24 h) is 13.61 µg/mL; in series [1] (24 h, read-out: IC50), 15 µM; in series [1] (48 h), 4.50 µg/mL; in [1] (48 h, read-out: IC50), 4.97 µM; in [2] (B16, 24 h), 6.88 µg/mL; in series [2] (B16, 24 h, read-out: IC50), 7.6 µM. The half-maximal inhibitory concentration (IC50) in series [2] (B16, 48 h) was 4.15 µg/mL; in [2] (B16, 48 h, read-out: IC50), 4.58 µM. The “reduction of BJ cell viability at the highest concentration” value is “up to 45%” in series [1] (24 h) and “up to 10%” in [1] (48 h). Moreover, the results for the “TI (therapeutic index)” value in series [2] (24 h) and in [2] (48 h) were 1.98 and 1.08, respectively. Also, the “B16 cell viability decreased to” value in [2] (B16) is recorded as 5%.
